In US7943667B2, “Potentiating the effect of compound comprising nitric oxide” (Duke University, priority 2007, dated 2011):
Like-named read-outs stand apart in the source and are kept apart here.

Legend:
[1] = system: Rat alveolar (L2) cells; experiment: Intracellular NO signal (DAF-FM fluorescence) in L2 cells incubated with ENO; format: cell-based; settings: ENO 10 mM, L-Leu 10 mM; for ENO induced intracellular NO signal (DAF): L-Cys 0.5 mM, by 24 minutes, N=5/group, p<0.05
Description: (§1) Rat alveolar (L2) cells were located with DAF-FM (converted intracellularly to DAF; NO^++DAF→fluorescense), then incubated with ENO 10 mM+L-Cys 0.5 mM, L-Leu 10 mM (competitor for L-Cys entry via LAT1), or both L-Cys+L-Leu. DAF signal was measured at 5, 10, and 24 min. In parallel studies, S—NO was measured in L2 cell lysates after co-incubation with ENO 0.2 mM±L-Cys 0.5 mM±L-Leu 10 mM by ozone chemiluminescense (normalized to protein). LAT1 protein was detected by western and immunocytochemistry in 8d air or 95% O2—exposed rat lung.

[2] = system: Rat alveolar (L2) cells; experiment: S-NO in L2 cell lysates by ozone chemiluminescence; format: cell-based; settings: for ENO induced SNO accumulation: ENO 0.2 mM ± L-Cys 0.5 mM ± L-Leu 10 mM, N=2/group
Description: as §1

[3] = system: Rat L2 (alveolar) cells, alveolar T1/T2 cells, alveolar macrophages; experiment: NO gas at air-liquid interface, DAF-FM NO signal in L2, alveolar T1/T2 cells and alveolar macrophages; format: cell-based; settings: NO gas 10 ppm x 4 h; for L-Cys increase of NO signal (effect of competitors): competitors 10 mM x 1 h; for NO signal in all cell types: D- or L-Cys 50 μM, 4-8 wells/group
Description: Rat L2 (alveolar) cells were used at passage 30. 1° alveolar T1/T2 cells were isolated from adult rat lungs with antibody-coated magnetic beads, and identified by immunocytochemistry (T1: T1^α, aquaporin-5; T2: pro-SP-C). Alveolar macrophages were obtained by lavage. Cells were plated onto collagen-coated transwells, grown submerged×2d, then incubated with DAF-FM to detect NO. Apical medium was replaced by buffer+glutathione 0.2 mM,±D-or L-Cys 50 μM±LAT competitors L-Leu or BCH, 10 mM×1 h then exposed to air or NO gas 10 ppm×4 h. Fluorescence was read in 4-8 wells/condition. LAT-1 expression was measured/RT-PCR in air or 95% O2-exposed newborn rat lung (day 2, 3, 4, 8).

[4] = Newborn piglet saline-lavage lung injury with pulmonary hypertension, pulmonary artery pressure; format: in vivo; settings: lungs lavaged with saline, inhaled NO 10 ppm, 56 Torr before treatment
Description: Newborn piglet was anesthetized and a thoracotomy was performed after placing arterial and venous monitoring catheters. A catheter was placed in the pulmonary artery and flow sensors around the pulmonary artery were placed.

[5] = Transwell air-liquid interface exposure to NO or ENO gas, intracellular NO signal (DAF-FM); format: cell-based; settings: NO or ENO gas 10 ppm for 4 hours; for NO signal produced by ENO or NO gas: buffer with 0.2 mM glutathione
Description: Cells were plated onto rat-tail collagen coated plastic inserts in a transwell system. When cells were firmly adherent and intact in appearance by microscopy, usually 24 h after plating, cell inserts were incubated in DAF-FM diacetate for one hour, then rinsed in Hepes-buffered Hank's balanced salt solution without amino acids. Buffer was removed from the upper chamber of the transwell and replaced with phosphate-buffered saline containing 0.2 mM glutathione in order to mimic the glutathione levels found in human alveolar lining fluid. […] The volume added was a few microliters sufficient to produce a layer of buffer ˜2 micron in thickness, in an effort to model the alveolar lining fluid thickness in the mammalian lung. Cell inserts were incubated at air liquid interface for 30 minutes, then exposed to NO or ENO gas 10 ppm for 4 hours. Inserts were then placed into a fluorescent microplate reader to detect the intracellular NO signal.

[6] = system: lung cells; experiment: S-nitrosothiol uptake in lung cells (LAT / PEPT2 transport); format: cell-based, rat
Excerpt: It was shown in a kidney cell line that transportation of extracellular S-nitrosothiols in the form of S-nitroso-L-cysteine through the L-type amnio acid transporter (LAT1) is necessary to achieve maximum intracellular S-nitrosothiol accumulation. It was also shown that eliminating the L-type amino acid transporter or blockade of the transporter severely limited the ability of extracellular S-nitroso-L-cysteine to gain entry into the kidney cell line. […] The results for kidney cell line were then obtained for umbilical endothelial cells. This reinforced our conception. We then performed exposures of rat pulmonary alveolar epithelial cells to a variety of S-nitrosothiol and nitric oxide donors and tested whether or not S-nitrosothiol and nitric oxide uptake required transnitrosylation of L-cysteine and uptake through L-type amino acid transport. In particular we conducted experiments using rat alveolar epithelial cells. […] We also tested the dipeptide transporter, PEPT2. […] When we added L-cysteine to the mixture, the high levels of S-nitrosothiol uptake in lung cells were restored, and this restoration was blocked when we blocked function of L-type amino acid transporter by competition or inhibition.
We conducted additional studies to determine if an alternate transporter, namely PEPT2, could account for some of the S-nitrosothiol uptake in lung cells. […] This confirmed the importance of L-cysteine as the carrier which is necessary to achieve high levels of S-nitrosothiols in lung cells. We confirmed these finding in freshly isolated lung cells as well.

[7] = system: rat alveolar pulmonary epithelial cells (L2 and Type II); experiment: SNO/NO accumulation with NO donors in alveolar epithelial cells; format: cell-based; settings: L-Cys added to NO donors; inhibited by co-incubation with LAT competitors
Description: We carried out experiments showing that addition of L-Cys to NO donors increased SNO/NO accumulation that was inhibited by co-incubation with LAT competitors in rat alveolar pulmonary epithelial cells (L2 and Type II). These are described in Granilla, O. M., AM. J. Physiol Lung Cell Mol. Physiol 295: L38-L43 (first published Apr. 25, 2008).

[8] = Working Example I: persistent pulmonary hypertension of the newborn; format: in vivo, human; settings: L-cysteine 36 micrograms/kg by nebulizer, then inhaled ethyl nitrite or nitric oxide 1-50 ppm; from 88%
Description: A newborn is delivered at 41 weeks gestational age through thick meconium following a labor requiring augmentation with oxytocin. They are immediately noted at birth to experience respiratory distress and cyanosis. […] Their respiratory distress worsens requiring mechanical ventilation. […] The patient is treated with 36 micrograms/kg of L-cysteine by nebulizer attached to the inspiratory limb of the ventilator circuit, followed by initiation of inhaled ethyl nitrite or inhaled nitric oxide at 1-50 ppm. The patient SpO2 rises immediately from 88% to 100%, and systolic blood pressure improves. This example represents treatment of persistent pulmonary hypertension of the newborn.

[9] = Working Example II: prevention of bronchopulmonary dysplasia in a premature newborn; format: in vivo, human; settings: L-cysteine 36 micrograms/kg daily with continuous ethyl nitrite 1-10 ppm for 14 days
Excerpt: The patient is born at 25 weeks estimated gestational age following preterm prolonged spontaneous rupture of amniotic membranes. The patient requires immediate endotracheal intubation at birth as well as mechanical ventilation. The patient receives the usual neonatal intensive care including exogenous surfactant administration, indomethacin prophylaxis for prevention of intraventricular hemorrhage, and intravenous antibiotics. Because the patient is at high risk to develop bronchopulmonary dysplasia, the patient is treated each day with a single dose of 36 micrograms/kg of L-cysteine and continuous ethyl nitrite at 1-10 ppm for a total of 14 days. (This is done via […] unless the patient should be extubated, in which case the inhaled ethyl nitrite is delivered via nasal cannula and the L-cysteine is administered once a day via nebulizer) Within five days, the patient is weaned from mechanical ventilation and extubated to nasal continuous positive airway pressure, continuing to receive inhaled […] 1-10 ppm, and daily L-cysteine at 36 micrograms/kg. […], the continuous positive airway pressure is discontinued. […] the patient is discharged home, without any diagnosed complications of extreme prematurity. This example represents prevention of development of bronchopulmonary dysphasia in a premature newborn infant.

For `CC(C)C[C@H](N)C(=O)O` [L-leucine], the “ENO induced intracellular NO signal (DAF)” value [1] was “significantly less”, the “ENO induced SNO accumulation” value [2] was “did not augment” and the “L-Cys increase of NO signal (effect of competitors)” value [3] was “blocked”.

For `[N]=O` [Inhaled nitric oxide, nitric oxide], the “peak pulmonary pressure / pulmonary artery pressure” value [4] was 45 Torr.

With `N[C@H](CS)C(=O)O` [D-cysteine] the “NO signal produced by ENO or NO gas” value [5] was “no effect” and the “NO signal in all cell types” value [3] was “not”.

In the case of `N[C@@H](CSN=O)C(=O)NCC(=O)O` [S-nitroso-L-cysteinyl-glycine], the “S-nitrosothiol signal / accumulation in lung cells” value [6] is reported as “could not achieve high levels” and the “S-nitrosothiol signal / accumulation in lung cells” value ([6]; listed as S—NO-Cys-Gly) is reported as “did not significantly increase”.

For `N[C@@H](CS)C(=O)NCC(=O)O` [L-cysteinyl-glycine], the “uptake in lung cells via dipeptide transporter PEPT2” value [6] was “taken up”.

For `CCON=O` [ENO, ethyl nitrite], the “intracellular NO^+ (DAF)” value ([1]; 5, 10 and 24 min) was “increased” and the “intracellular SNO” value ([2]; ENO 0.2 mM) was “increased”.

With `NC1(C(=O)O)CC2CCC1C2` (stereo not drawn) [BCH, 2-aminobicyclo-(2,2,1)-heptane-2-carboxylic acid] the “L-cysteine augmentation of NO signal (effect of LAT competitors)” value ([5]; with L-cysteine) was “completely abolished” and the “L-Cys increase of NO signal (effect of competitors)” value [3] was “blocked”.

In the case of `N[C@@H](CS)C(=O)O` [L-cysteine], the “ENO induced intracellular NO signal (DAF)” value [1] is reported as “augmented”, the “ENO induced SNO accumulation” value [2] is reported as “augmented” and the “NO signal produced by ENO or NO gas” value [5] is reported as “augmentation”. For the same compound, the “NO signal in all cell types” value [3] was “increased”, the “S-nitrosothiol signal / accumulation in lung cells” value [6] was “restored” and the SNO/NO accumulation [7] was “increased”. The SpO2 [8] was 100% and the “bronchopulmonary dysplasia at 36 weeks post conceptual age” value [9] was “no evidence of bronchopulmonary dysplasia”.
